Like-named read-outs stand apart in the source and are kept apart here.
Columns and labels:
coronary strips = conditions: vasodilation; cited from earlier work
[1] = in vitro skin flux of ketorolac; conditions: Table 5
Description: Generally, the protocol was as follows.
Human cadaver epidermis was removed carefully from dermatoned full thickness skin after the skin had been heated in deionized water at 60° C. for one to two minutes. The stripped epidermis was placed between two polyethylene plastic sheets and refrigerated at -20° C. until use. Discs of the epidermis having a diameter of 5/8" were punched out with a die and tested for leakage by soaking the epidermis in water, then spreading it flat on a plastic sheet, and pressing the top of the epidermis lightly a few times with a piece of laboratory tissue. Leakage of the epidermis was detected by appearance of wet spots on the tissue.
Epidermis discs proving to be free of leaks were placed on top of a receiver cell of a modified Franz vertical diffusion cell assembly, and a donor cell was placed on top of the receiver cell. A small magnetic stir bar was inserted through the sampling port into the donor cell compartment. The diffusion cell assemblies were clamped together and transferred to a skin permeation room (controlled at 32° C.) The receiver cell compartments were filled with 8.0 ml of isotonic phosphate buffer, pH 7.0. […]
The quantity of ketorolac tromethamine in each sample was assayed by HPLC analytical methods.

[2] = cited from earlier work
[3] = administered orally; cited from earlier work
[4] = cited from earlier work; remark: listed apart in the source
[5] = cited from earlier work; remark: listed apart in the source
[6] = cited from earlier work; remark: listed apart in the source
Rhesus monkeys = conditions: cited from earlier work
rats = conditions: rat, not told; cited from earlier work
[7] = cited from earlier work; remark: listed apart in the source
[8] = cited from earlier work; for Solubilities: saturated
[9] = system: patients with coronary heart disease; conditions: single oral dose of 2 mg; cited from earlier work
[10] = oral doses; cited from earlier work
[11] = in vivo
Description: It is necessary to combine both the oral dose and the pharmacokinetics data to estimate the target flux of ketorolac. For an oral dosage regimen of ketorolac tromethamine, it is recommended that 10 mg be given every 6 hours as needed for short-term management of moderate to severe pain.

## N#CCN(N=O)N1CCOCC1 [SIN-1A]
Coronary strips
  dependence of activity on cysteine: active in both the presence and the absence of cysteine

## CC(O)CO (centres unmarked) [PG, propylene glycol]
[1]
  Effect on skin flux (factorial design): 8.72

## O=C(c1ccccc1)c1ccc2n1CCC2C(=O)O (centres unmarked) [Ketorolac tromethamine]
[2]; aqueous solutions pH 4-8, 25° C.
  shelf-life: very long shelf-life
[2]
  aqueous solubility relative to ketorolac: greater aqueous solubility than ketorolac
[2]; decarboxylation, especially in the presence of oxygen
  light sensitivity: light sensitive
[2]; pH 4-8
  stability in aqueous solutions: extremely stable
[3]
  anti-inflammatory potency relative to indomethacin or naproxen: 2-3 times
[4]; PG (50%), Oleic acid (50%)
  Solubilities: 110 mg/mL
[4]; propylene glycol (PG)
  Solubilities: 200 mg/mL
[4]; water
  Solubilities: 725 mg/mL
[5]; in vivo
  volume of distribution: 7.7 lit/70 kg
[5]; oral
  oral bioavailability: 80-100%
[6]; administered orally
  analgesic potency relative to aspirin: about 180 times
  analgesic potency relative to indomethacin: 3-6 times
  analgesic potency relative to naproxen: 25-50 times
Rhesus monkeys; rhesus monkey
  estimated in vivo skin flux: very high

## O=C(c1ccccc1)c1ccc2n1CC[C@@H]2C(=O)O [(-)-S isomer]
[6]; A. Guzman et al., 1986
  analgesic potency relative to (+)-R isomer: many times greater analgesic potency

## O=[N+]([O-])OCC(CO[N+](=O)[O-])O[N+](=O)[O-] [nitroglycerin]
Coronary strips
  dependence of activity on cysteine: depends on the presence of cysteine

## CCOC(=O)[N-]c1cn(N2CCOCC2)n[o+]1 [Molsidomine, N-5-ethoxycarbonyl-3-morpholinosydnonimine]
rats
  estimated flux: ~399 μg/hr-cm^2
[7]; 25° C.
  pKa: 3.34
[7]; pH 5-7, 20° C.
  t90: 2.6 years
[8]; CHCl3
  solubility: freely soluble
[8]; Glycerin, 25° C.
  Solubilities: 1.80%
[8]; Glycol salicylate, 25° C.
  Solubilities: 15.1%
[8]; Isopropyl myristate, 25° C.
  Solubilities: 0.09%
[8]; Octyl.decyl oil, 25° C.
  Solubilities: 0.36%
[8]; Oleic Acid, 25° C.
  Solubilities: 1.37%
[8]; PEG 400, 25° C.
  Solubilities: 5.23%
[8]; Propylene glycol, 25° C.
  Solubilities: 6.37%
[8]; dilute HCl, ethanol, ethyl acetate, methanol
  solubility: soluble
[8]; ether, petroleum ether
  solubility: very slightly soluble
[8]; propylene glycol and a variety of organic solvents
  solubility: soluble
[8]; water, acetone, benzene
  solubility: sparingly soluble
[9]
  duration of anti-anginal effects: 3 to 5 h
[10]
  bioavailability: 44%

## O=C(c1ccccc1)c1ccc2n1CCC2C(=O)O (centres unmarked) [Ketorolac]
[5]; in vivo
  total clearance: 1750 ml/hr/70 kg
[5]; oral administration of 10 mg, 6 hour
  plasma concentration at 6 hour: 200 to 300 ng/mL
[5]; oral administration of 10 mg
  Cmax: about 0.8 μg/ml
[11]
  amount to be delivered during a 24 hour period: 12.5 to 19.2 mg
Rhesus monkeys; percutaneous, solution formulations
  time to high Cmax: ≤ 8 h
Rhesus monkeys; solution formulations
  enhancement of percutaneous absorption by propylene glycol and linoleic acid, or propylene glycol and oleic acid: effective

— US5962013A, “Monolithic matrix transdermal delivery system for administering molsidomine” (priority 1998, dated 1999)
